Assay results taken from PMC5503023 (2016).

Assays:
[1] = test system: bcl-2 G-quadruplex DNA (DNA, G4) CGGGCGCGGGAGGAAGGGGGCGGGAGC; assay: CD melting at 280 nm; conditions: 100 mM KCl; 10 mM Tris-HCl, pH 7.4; 10 μM complex, 100 μM DNA
[2] = test system: bcl-2 G-quadruplex DNA (DNA, G4) CGGGCGCGGGAGGAAGGGGGCGGGAGC; assay: UV-vis absorption titration; conditions: 100 mM KCl; 10 mM Tris-HCl, pH 7.4; 20 μM complex; intrinsic binding constant

ΔTm [1]: 4.2 °C | K [2]: ~ 2.94 × 10^6 M^-1
SMILES: Clc1ccc(-c2nc3c4cccnc4c4ncccc4c3[nH]2)cc1.[Cl-].[Ru+2].c1ccccc1
